Laboratory results published in publication PMC2816240 (European Journal of Nuclear Medicine and Molecular Imaging, 2009).

What was measured:
male Wistar rats [1] = format: in vivo, rat; conditions: 20 h post-injection, n = 5 rats, vs PBS
male Wistar rats [2] = test: Adverse effects of injection in rats; format: in vivo; conditions: peptide #6 0.2, 1 or 5 mg per rat i.v.

In the case of “ENFVAFVDKCCAADDKEA CFAVEGPKLVVSTQTALA [peptide #6]”, the “uptake of 111In-octreotide in the pancreas and other organs” value (male Wistar rats [1]; peptide #6 5 mg i.v.) is reported as “unaffected”, the “uptake of 111In-minigastrin and 111In-exendin in organs other than the kidneys” value (male Wistar rats [1]; peptide #6 i.v.) is reported as “not affected” and the “adverse effects of injection” value (male Wistar rats [2]) is reported as “no adverse effects”.
